Measured values reported in US4315023A, “1-Phenethylimidazole derivatives” (Westwood Pharmaceuticals, Inc., priority 1980, dated 1982).
Where a name gives a salt, the structure may show the parent alone.

Key:
Candida albicans = Candida albicans induced vaginal infection in mice; type: in vivo, female mice; conditions: for Score, Determination A / Score, Determination B / Score, Determination C / Score, Determination D / Score, Mean: score 0-4
Description: A majority of the compounds of formula 3 were evaluated together with the prior art compound of formula 2 in a Candida albicans induced vaginal infection in mice and a Trichophyton quinekeanum induced skin infection in guinea pigs. Sabouraud broth was inoculated with Candida albicans and the inoculum incubated for two days at 28° C. on a rotary shaker. Groups of four to five female mice weighing between 18-21 grams were infected intravaginally with a 0.01 ml portion of the cell suspension containing 10^8 cells/ml on day 0. The mice were treated subcutaneously with 0.5 mg of estradiol benzoate three days before and four days after infection. The test compounds were suspended in 1% carboxymethyl cellulose and 0.02 ml of the suspension was instilled intravaginally from day 0 (four hours after infection) to day 4 (5 applications). On day 7, vaginal exudate was taken by a thin glass rod and streaked on a YGP agar plate containing 100 mcg/ml of chloramphenicol. The plate was incubated for two days at 28° C. […] In the following Table I the antifungal activity of the test compound is reported as the EC50 value, which is the percentage drug concentration giving 50% of the score of untreated control animals. The EC50 was calculated by the method of least squares (K. Brounlee: Statistical Theory and Methodology in Science and Engineering, pages 345-349, Wiley Press, New York, 1965). In Table II a more detailed comparison on the in vivo antifungal activities of compound 3a and the isomeric prior art compound 2 are shown together with the data for compound 3b.

Streptococcus pyogenes = experiment: in vitro antibacterial activity (MIC), S. pyogenes; type: cell-based; conditions: 50% Nutrient Broth + 5% human serum
Streptococcus pneumoniae = experiment: in vitro antibacterial activity (MIC), S. pneumoniae; type: cell-based; conditions: 50% Nutrient Broth + 5% human serum
Staphylococcus aureus = experiment: in vitro antibacterial activity (MIC), S. aureus; type: cell-based; conditions: Nutrient Broth
S. faecalis = experiment: in vitro antibacterial activity (MIC), S. faecalis; type: cell-based, Streptococcus faecalis; conditions: Enterococcus faecalis; Nutrient Broth
Trichophyton quinekeanum = Trichophyton quinekeanum induced skin infection in guinea pigs; type: in vivo, male guinea pigs; conditions: for Score, Determ. G / Score, Mean / Score, Determ. E / Score, Determ. F: lesion score 0-4
Description: In the guinea pig skin infection test, Trichophyton quinekeanum was cultured on a YGP agar slant at 28° C. for 10 days. Spores were collected from the mycelial mat and suspended in Sabouraud broth containing 2% of Tween 80. Groups of 3 male guinea pigs weighing between 400-500 g were used for each dose of test compound. The flanks of the animals were depilated and injured with sandpaper. The injured area was inoculated and rubbed with a glass rod on day 0 with 0.2 ml of the spore suspension containing 10^8 CFU/ml. The test compound was combined with a 1:1 mixture of polyethylene glycol 400 and 4000, and 0.3 ml of the ointment was applied to the infected area on day 1, 3 and 5. Lesions were examined on day 7 and scored as follows: 0, normal; 1, erythema; 2, erythema with whitish area; 3, erythema and numerous whitish areas; 4, erythema with confluent scaling and whitish pateches. A compound showing a mean score of 1.5 or less was considered active.
In the following Table I the antifungal activity of the test compound is reported as the EC50 value, which is the percentage drug concentration giving 50% of the score of untreated control animals. The EC50 was calculated by the method of least squares (K. Brounlee: Statistical Theory and Methodology in Science and Engineering, pages 345-349, Wiley Press, New York, 1965). In Table II a more detailed comparison on the in vivo antifungal activities of compound 3a and the isomeric prior art compound 2 are shown together with the data for compound 3b.
Treatment: 5 applications (day 0 to 4) against candida vaginal infection
and 3 applications (day 1, 3 and 5) against trichophyton skin infection

In the case of Clc1ccc(CSCSC(Cn2ccnc2)c2ccc(Cl)cc2Cl)cc1 (stereo not drawn) [Compound 3a, 1-[2-(4-Chlorobenzylthiomethylthio)-2-(2,4-dichlorophenyl)ethyl]1-H-imidazole hydrogen fumarate], the “EC50, Candida Vaginal Infection” value (Candida albicans; Table I, percentage drug concentration giving 50% of the score of untreated control, intravaginal) is reported as 0.0035%, the “EC50 (%) (95% CL), Candida vaginal infection” value (Candida albicans; Table II, N = 5, 5 applications day 0 to 4) is reported as 0.0035% and the “Score, Determination A” value (Candida albicans; conc. 0.0003%) is reported as 2.8. For the same compound, the “Score, Determination B” value (Candida albicans; conc. 0.0003%) was 2.2, the “Score, Determination C” value (Candida albicans; conc. 0.0003%) was 3.4 and the “Score, Determination D” value (Candida albicans; conc. 0.0003%) was 2.5. For the same compound, the “Score, Mean” value (Candida albicans; conc. 0.0003%) was 2.6, the “Score, Determination A” value (Candida albicans; conc. 0.001%) was 3.0 and the “Score, Determination B” value (Candida albicans; conc. 0.001%) was 2.2. The “Score, Determination C” value (Candida albicans; conc. 0.001%) was 2.8, the “Score, Determination D” value (Candida albicans; conc. 0.001%) was 2.0 and the “Score, Mean” value (Candida albicans; conc. 0.001%) was 2.5. For the same compound, the “Score, Determination A” value (Candida albicans; conc. 0.003%) was 1.4, the “Score, Determination B” value (Candida albicans; conc. 0.003%) was 2.2 and the “Score, Determination C” value (Candida albicans; conc. 0.003%) was 3.0. For the same compound, the “Score, Determination D” value (Candida albicans; conc. 0.003%) was 1.3, the “Score, Mean” value (Candida albicans; conc. 0.003%) was 2.0 and the “Score, Determination A” value (Candida albicans; conc. 0.01%) was 1.5. The “Score, Determination B” value (Candida albicans; conc. 0.01%) was 0.4, the “Score, Determination C” value (Candida albicans; conc. 0.01%) was 1.3 and the “Score, Determination D” value (Candida albicans; conc. 0.01%) was 1.3. The “Score, Mean” value (Candida albicans; conc. 0.01%) was 1.1, the “Score, Determination A” value (Candida albicans; conc. 0.03%) was 0.6 and the “Score, Determination B” value (Candida albicans; conc. 0.03%) was 0.8. For the same compound, the “Score, Determination C” value (Candida albicans; conc. 0.03%) was 0, the “Score, Determination D” value (Candida albicans; conc. 0.03%) was 0.4 and the “Score, Mean” value (Candida albicans; conc. 0.03%) was 0.45. The “times more efficacious than prior art compound 2, Candida induced vaginal infection in mice” value (Candida albicans; relative to prior art compound 2 (for 3a: hydrogen fumarate vs hydrogen fumarate)) was “greater than 85 times”, the MIC (Streptococcus pyogenes) was 63 µg/mL and the MIC (Streptococcus pneumoniae) was 63 µg/mL. The MIC (Staphylococcus aureus; Strain A) was 0.5 µg/mL, the MIC (Staphylococcus aureus; Strain B) was over 63 µg/mL and the MIC (Staphylococcus aureus; Strain C) was over 63 µg/mL. The MIC (S. faecalis) was over 63 µg/mL, the “EC50, Trichophyton Skin Infection” value (Trichophyton quinekeanum; Table I, percentage drug concentration giving 50% of the score of untreated control, topical ointment) was 0.039% and the “EC50 (%) (95% CL), Trichophyton skin infection” value (Trichophyton quinekeanum; Table II, N = 4, 3 applications day 1, 3 and 5) was 0.039%. The “Score, Determ. G” value (Trichophyton quinekeanum; conc. 0.01%) was 2.0, the “Score, Mean” value (Trichophyton quinekeanum; conc. 0.01%) was 2.0 and the “Score, Determ. E” value (Trichophyton quinekeanum; conc. 0.03%) was 1.8. For the same compound, the “Score, Determ. F” value (Trichophyton quinekeanum; conc. 0.03%) was 2.5, the “Score, Determ. G” value (Trichophyton quinekeanum; conc. 0.03%) was 1.5 and the “Score, Mean” value (Trichophyton quinekeanum; conc. 0.03%) was 1.9. For the same compound, the “Score, Determ. E” value (Trichophyton quinekeanum; conc. 0.1%) was 1.5, the “Score, Determ. F” value (Trichophyton quinekeanum; conc. 0.1%) was 1.0 and the “Score, Determ. G” value (Trichophyton quinekeanum; conc. 0.1%) was 0.3. The “Score, Mean” value (Trichophyton quinekeanum; conc. 0.1%) was 0.92, the “Score, Determ. E” value (Trichophyton quinekeanum; conc. 0.3%) was 1.0 and the “Score, Determ. F” value (Trichophyton quinekeanum; conc. 0.3%) was 0. For the same compound, the “Score, Determ. G” value (Trichophyton quinekeanum; conc. 0.3%) was 0, the “Score, Mean” value (Trichophyton quinekeanum; conc. 0.3%) was 0.33 and the “times more efficacious than prior art compound 2, Trichophyton induced skin infection in guinea pigs” value (Trichophyton quinekeanum; hydrogen fumarate of 3a vs prior art compound 2) was “about 2.5 times”.
